This note sets out measurements from US20230172958A1, “USE OF COMPOUNDS FOR TREATING VIRAL INFECTIONS” (priority 2020, published 2023).

Some results are limits rather than exact numbers.

Assay type in all cases: cell-based
The nature of series [1]: Neutral Red toxicity assay, uninfected cultures. The conditions noted are these: African green monkey, Vero 76 cells (uninfected monolayers), cell-inhibitory. Here is the method: Confluent or near-confluent cell culture monolayers of Vero 76 cells were prepared in 96-well disposable microplates the day before testing. Cells were maintained in MEM (Minimum Essential Medium Eagle) supplemented with 5% FBS (Fetal Bovine Serum). For antiviral assays the same medium was used but with FBS reduced to 2% and supplemented with 50-μg/ml gentamicin.
Compounds were dissolved in DMSO, saline or the diluent. […] The test compound was prepared at four serial log10 concentrations, usually 0.1, 1.0, 10, and 100 μg/ml or μM. Lower concentrations were used when insufficient compound was supplied. Five microwells were used per dilution: three for infected cultures and two for uninfected toxicity cultures. Controls for the experiment consisted of six microwells that were infected and not treated (virus controls) and six that were untreated and uninfected (cell controls) on every plate. A known active drug was tested in parallel as a positive control drug using the same method as was applied for test compounds. The positive control was tested with every test run.
Growth media was removed from the cells and the test compound was applied in 0.1 ml volume to wells at 2× concentration. Virus, normally at ˜60 CCID50 (50% cell culture infectious dose) in 0.1 ml volume is added to the wells designated for virus infection. Medium devoid of virus was placed in toxicity control wells and cell control wells. […] The plates were then stained with 0.011% neutral red for approximately two hours at 37° C. in a 5% CO2 incubator. The neutral red medium was removed by complete aspiration, and the cells may be rinsed 1× with phosphate buffered solution (PBS) to remove residual dye. The PBS was completely removed, and the incorporated neutral red was eluted with 50% Sorensen's citrate buffer/50% ethanol for at least 30 minutes. Neutral red dye penetrates into living cells, thus, the more intense the red color, the larger the number of viable cells present in the wells. The dye content in each well was quantified using a spectrophotometer at 540 nm wavelength. The dye content in each set of wells was converted to a percentage of dye present in untreated control wells using a Microsoft Excel computer-based spreadsheet and normalized based on the virus control. The 50% effective (EC50, virus-inhibitory) concentrations and 50% cytotoxic (CC50, cell-inhibitory) concentrations are then calculated by regression analysis. The quotient of CC50 divided by EC50 gives the selectivity index (SI) value.

A further series has as its system V-ATPase. As to the kind of experiment: V-ATPase ELISA (Human V-Type Proton ATPase ELISA kit) on treated MDAMB231 cells. Conditions: 100 nM (0.1 μM)/10,000 cells, 48 hours. The protocol: An ELISA test was performed using Human V-Type Proton ATPase ELISA kit (My BioSource Catlog no: MBS911862) to determine the V-ATPase inhibitory effect of the compounds of the present invention.
Procedure: 1.0 million cells of MDAMB231 (cell line rich in V-ATPase) were plated on 60 mm plates for 24 hours at 37° C. and 5% CO2. The cells were treated with the test compounds (Formula A to U) at a concentration of 100 nM (0.1 μM)/10,000 cells and incubated for 48 hours. After incubation the supernatant was discarded, the cells were washed with D.P.B.S. (Dulbecco's phosphate-buffered saline), scraped and stored at −80° C. for 48 hours. The cells were thawed, vortexed, homogenized for 7 minutes, followed by centrifugation for 3 minutes at 3000 R.P.M. The supernatant was taken for V-ATPase Assay.
Standards and samples were pipetted into the wells. Antibody specific for V-ATPase was pre-coated onto a microplate. Any V-ATPase present in the standard /sample would get bound by the immobilized antibody. After the incubation period any unbound substances were removed by washing and a biotin-conjugated antibody specific for V-ATPase was added to the wells and plates were re-incubated at 37° C. and 5% CO2. After washing, avidin conjugated Horseradish Peroxidase (HRP) was added to the wells. Following a wash to remove any unbound avidin-enzyme reagent, a substrate solution was added to the wells and colour developed was in proportion to the amount of V-ATPase bound in the initial step. The colour development was stopped, and the optical density was measured at 450 nm spectrophotometrically. The concentration of V-ATPase was then calculated by substituting the optical density in the regression equation obtained from the standards. Percent (%) reduction in V-ATPase was calculated by subtracting the amount of V-ATPase obtained from the untreated/conc. of V-ATPase in untreated X100.

The next series has as its system SARS-CoV-2. In words: Neutral Red reduction of virus-induced cytopathic effect (primary CPE assay) in Vero 76 cells. The conditions noted are these: Severe acute respiratory syndrome coronavirus 2, virus-inhibitory. In general terms: Damage to the host cells serves as the signal in cytopathic effect assays.
Series [2] has as its system Human Peripheral Blood Lymphocytes. As to the kind of experiment: MTT toxicity assay on normal cells. Conditions: 48 hours. Here is the method: Toxicity studies of compounds of the present invention on normal cells The toxicity study was performed on Human Peripheral Blood Lymphocytes obtained differential centrifugation of defibrinated blood. MTT assay for compound of the present invention was performed to determine its toxicity. MTT assay is a simple and sensitive assay where, metabolic reducing activity of the cells is measured. It was carried out in the following manner.
A required volume of cell suspension was prepared as per the cell plating efficiency. 200 μl of prepared cell suspension was added in labelled 96 well plates and the plates were placed in an incubator for 18-24 hours at 37° C. and 5% CO2. Then, 2 μl of respective compound dilution was added and the plates were placed in the incubator for 48 hours at 37° C. and 5% CO2. The suspension was aspirated from the plates and 100 μl of working MTT solution (0.5 mg/ml MTT prepared from 5 mg/ml MTT stock in 1× complete media) was added. The plates were incubated in the incubator for 4 hours at 37° C. and 5% CO2. The plates were spinned down, supernatant removed, 200 μl DMSO was added, mixed gently and placed in the incubator for 10 minutes at 37° C. and 5% CO2. The absorbance at 570 nm was read and percentage viability and IC50 value of the compounds was calculated using regression analysis.
For orientation: Tetrazolium assays rely on reduction of a dye to a coloured formazan, in cell work by metabolically active cells.

The term CC50 denotes the concentration at which the toxic effect on the cells reaches its halfway point. A word on the EC50: it is the concentration that produces a half-maximal response. For `COc1cc2c(OC3OCC(OC)C(OC)C3O)c3c(c(-c4ccc5c(c4)OCO5)c2cc1OC)C(=O)OC3` (centres unmarked) [Compound of Formula A, 9-(benzo[d][1,3]dioxol-5-yl)-6,7-dimethoxy-4-(tetrahydro-3-hydroxy-4,5-dimethoxy-2H-pyran-2-yloxy)naphtho[2,3-c]furan-1(3H)-one], the CC50 in series [1] was less than 0.1 µg/mL. Besides, in the series on V-ATPase, the “reduction of V-ATPase (%)” value worked out at 13.31%. In the series on SARS-CoV-2, the EC50 was greater than 0.1 µg/mL.
With `COc1cc2c(OC(=O)c3cccn3C)c3c(c(-c4ccc5c(c4)OCO5)c2cc1OC)C(=O)OC3` [Compound of Formula B, 9-(benzo[d][1,3]dioxol-5-yl)-1,3-dihydro-6,7-dimethoxy-1-oxonaphtho[2,3-c]furan-4-yl 1-methyl-1H-pyrrole-2-carboxylate], the “IC50 (μM)” value in series [2] was “No activity (Nontoxic)”. Moreover, the “reduction of V-ATPase (%)” value with V-ATPase came out at 15.33%.
The like results for `COc1cc2c(OC(=O)C(c3ccccc3)C3CCCC3)c3c(c(-c4ccc5c(c4)OCO5)c2cc1OC)C(=O)OC3` (centres unmarked) [Compound of Formula C, 9-(benzo[d][1,3]dioxol-5-yl)-1,3-dihydro-6,7-dimethoxy-1-oxonaphtho[2,3-c]furan-4-yl 2-cyclopentyl-2-phenylacetate] were, in that order, “No activity (Nontoxic)” and 14.69%.
For the compound `CCOC(=O)c1c(C(=O)OCC)c(-c2ccc3c(c2)OCO3)c2cc(OC)c(OC)cc2c1OC1OCC(OC)C(OC)C1O` (centres unmarked) [Compound of Formula D, diethyl 1-(benzo[d][1,3]dioxol-5-yl)-6,7-dimethoxy-4-(tetrahydro-3-hydroxy-4,5-dimethoxy-2H-pyran-2-yloxy)naphthalene-2,3-dicarboxylate], the midpoint of cytotoxicity in series [1], the CC50, lay at 40 µg/mL. In addition, in series [2], the “IC50 (μM)” value is reported as “No activity (Nontoxic)”. The “reduction of V-ATPase (%)” value in the series on V-ATPase is listed as 18.2%. This compound also gave an EC50 in the series with SARS-CoV-2 of 32 µg/mL.
Regarding `O[C@H]1[C@H](O)COC(Oc2ccc(-c3ccc4c(c3)OCO4)c3ccccc23)[C@@H]1O` (stereo partly drawn) [Compound of Formula F, (3R,4S,5R)-2-(1-(benzo[d][1,3]dioxol-5-yl)naphthalen-4-yloxy)-tetrahydro-2H-pyran-3,4,5-triol], in series [1], the CC50 is 32 µg/mL. Besides, in the series on V-ATPase, the “reduction of V-ATPase (%)” value is 61.0%. The same compound had a concentration giving a half-maximal response (EC50) with SARS-CoV-2 of 2.9 µg/mL.
`O=C(Nc1ccc(-c2ccc3c(c2)OCO3)c2ccccc12)c1ccco1` [Compound of Formula G, N-(1-(benzo[d][1,3]dioxol-5-yl)naphthalen-4-yl)furan-2-carboxamide]: the “reduction of V-ATPase (%)” value with V-ATPase is recorded as 62.37%.
The same measure, in the same setting: the same measure for `c1ccc(COc2ccc(-c3ccc4c(c3)OCO4)c3cccnc23)cc1` [Compound of Formula H, 5-(benzo[d][1,3]dioxol-5-yl)-8-(benzyloxy)quinoline]: 61.34%.
Regarding `O=S(=O)(Nc1ccc(-c2ccc3c(c2)OCO3)c2ccccc12)c1ccccc1` [Compound of Formula I, N-(1-(benzo[d][1,3]dioxol-5-yl)naphthalen-4-yl)benzenesulphonamide], in series [2], the “IC50 (μM)” value is “No activity (Nontoxic)”. For the same compound, the “reduction of V-ATPase (%)” value in the series on V-ATPase was 20.56%.
On to `O=S(=O)(Nc1ccc(-c2ccc3c(c2)OCO3)c2ccccc12)c1ccc(F)cc1` [Compound of Formula J, N-(1-(benzo[d][1,3]dioxol-5-yl)naphthalen-4-yl)-4-fluorobenzenesulphonamide], for which, in the series with V-ATPase, the “reduction of V-ATPase (%)” value amounted to 60.96%.
Same read-out and setting: the same measure for `O=C(CN1CCNCC1)Nc1ccc(-c2ccc3c(c2)OCO3)c2ccccc12` [Compound of Formula K, N-(1-(benzo[d][1,3]dioxol-5-yl)naphthalen-4-yl)-2-(piperazin-1-yl)acetamide]: 28.05%; for `c1ccc2c(-c3ccc4c(c3)OCO4)ccc(OCCCCN3CCOCC3)c2c1` [Compound of Formula M, 4-(4-(1-(benzo[d][1,3]dioxol-5-yl)naphthalen-4-yloxy)butyl)morpholine]: 76.16%; for `c1ccc2c(-c3ccc4c(c3)OCO4)ccc(OCCCCNC3CCCCC3)c2c1` [Compound of Formula N, N-(4-(1-(benzo[d][1,3]dioxol-5-yl)naphthalen-4-yloxy)butyl)cyclohexanamine]: 6.3%.
On to `c1ccc2c(-c3ccc4c(c3)OCO4)ccc(OCCN3CCOCC3)c2c1` [Compound of Formula O, 4-(2-(1-(benzo[d][1,3]dioxol-5-yl)naphthalen-4-yloxy)ethyl)morpholine], for which the “IC50 (μM)” value in series [2] was “No activity (Nontoxic)”. Besides, the “reduction of V-ATPase (%)” value in the series on V-ATPase was 20.26%.
Take `COc1cccc(-c2ccc(OCCN3CCOCC3)c3ccccc23)c1` [Compound of Formula P, 4-(2-(1-(3-methoxyphenyl)naphthalen-4-yloxy)ethyl)morpholine]: the “IC50 (μM)” value in series [2] is “No activity (Nontoxic)”. In the series with V-ATPase, the “reduction of V-ATPase (%)” value worked out at 18.27%.
Take `c1cc2c(cc1-c1ccc(OCCCCCCNC3CCCCC3)c3c1CCCC3)OCO2` [Compound of Formula Q, N-(6-(5-(benzo[d][1,3]dioxol-5-yl)-1,2,3,4-tetrahydronaphthalen-8-yloxy)hexyl)cyclohexanamine]: the “reduction of V-ATPase (%)” value in the series with V-ATPase came to 77.42%.
Turning to `C=CCNCCCCCCOc1ccc(-c2ccc3c(c2)OCO3)c2c1CCCC2` [Compound of Formula R, 6-(5-(benzo[d][1,3]dioxol-5-yl)-1,2,3,4-tetrahydronaphthalen-8-yloxy)-N-allylhexan-1-amine], the “reduction of V-ATPase (%)” value in the series on V-ATPase was determined as 16.2%.
Same read-out and setting: the figure for `c1cnc2c(OCCN3CCOCC3)ccc(-c3ccc4c(c3)OCO4)c2c1` [Compound of Formula S, 8-(2-morpholinoethoxy)-5-(benzo[d][1,3]dioxol-5-yl)quinoline] is 75.5%; for `O=C(CN1CCNCC1)NCCOc1ccc(-c2ccc3c(c2)OCO3)c2ccccc12` [Compound of Formula T, N-(2-(1-(benzo[d][1,3]dioxol-5-yl)naphthalen-4-yloxy)ethyl)-2-(piperazin-1-yl)acetamide] it is 81.9%.
Consider `COc1ccc(-c2ccc(OCCN3CCOCC3)c3ccccc23)cc1OC` [Compound of Formula U, 4-(2-(1-(3,4-dimethoxyphenyl)naphthalen-4-yloxy)ethyl)morpholine], for which, in series [2], the “IC50 (μM)” value is on record as “No activity (Nontoxic)”. The “reduction of V-ATPase (%)” value with V-ATPase turned out to be 16.57%.
